These results are taken from patent US12264349B2, “Method for producing monoterpenoid compounds” (John Innes Centre, priority 2018, dated 2025).

Data set [1] concerns the target T1, NEPS1-WT (Nepeta racemosa, UniProt A0A3Q8GL18).
T1 construct: made in house; host or cells: E. coli SoluBL21
T1 sequence (A0A3Q8GL18 1-271): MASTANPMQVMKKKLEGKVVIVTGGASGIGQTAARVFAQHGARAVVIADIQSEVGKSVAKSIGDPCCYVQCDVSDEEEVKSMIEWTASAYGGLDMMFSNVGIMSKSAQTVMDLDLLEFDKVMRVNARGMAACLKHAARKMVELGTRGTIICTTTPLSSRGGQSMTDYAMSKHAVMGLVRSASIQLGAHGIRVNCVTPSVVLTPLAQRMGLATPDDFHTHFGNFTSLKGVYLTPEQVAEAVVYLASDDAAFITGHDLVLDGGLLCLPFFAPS
Put plainly: NEPS1 dehydrogenase activity kinetics, spectrophotometric at 340 nm. Format: biochemical, Nepeta mussinii. The following applies: for Kcat or V (velocity V, single substrate concentration): substrate 1000 μM. The procedure: (§1) Kinetics and dehydrogenase activity measurements were conducted spectrophotometrically on a PerkinElmer Lambda 35 instrument at a wavelength of 340 nm and in cuvettes with 1 cm path length. The reactions were conducted at 25° C. and with 50 mM HEPES pH 8.0, […].
(§2) Reactions were initiated by addition of the enzyme, and absorbance values were recorded at a rate of 1 Hz. Enzyme concentration was varied from 0.025-0.25 μM to maintain a linear rate. The R software environment was used to fit linear initial rates over the first 20 s of the enzyme reaction. For Michaelis-Menten experiments, at least 8 data points were obtained for each substrate combination. The Michaelis-Menten equation was fitted to the data points in R by the nls function to obtain values for the kinetic parameters. Kinetic parameters are reported as a best fit estimate±SE. For activity measurements with NADP^+ and NADH, single substrate concentrations were employed. Velocity values (in italics) are provided as a mean of triplicate measurements±standard deviation from the mean.

Data set [2] has as its target T2, NEPS1-T154G (Nepeta racemosa, UniProt A0A3Q8GL18, T154G).
T2 construct: This gene-length amplicon was gel-purified and then cloned into the pOPINF vector; made in house; host or cells: E. coli SoluBL21
It is filed as biochemical, Nepeta mussinii. How it is done:
as §1, §2

The nature of data set [3]: Nepetalactol stability in buffer (GC-MS). To be noted: 30° C. Format: physicochemical. How it is done:
Cis-trans-nepetalactol (4a, FIG. 10A) and cis-cis-nepetalactol (4b, FIG. 10B) stability in 10 mM and 0.5 M MOPS pH 7.5. 4a appears to be stable in both these conditions. 4b appears mostly stable in 10 mM MOPS pH 7.5, but is not stable in high buffer concentrations (0.5 M MOPS pH 7.5) and degrades to form iridodials 5. Chromatograms are all GC-MS TICs, RT=retention time (min), incubation was 16 h, 30° C.
End-point assays with purified enzymes were conducted at a total volume of 100 μL. Reactions using either 8-oxogeranial 2 or 8-oxocitronellal 6 as a substrate contained 1% v/v MeCN. In experiments examining the effect of buffer concentrations, enzymes were diluted with water. Trace residual concentrations of sample buffer in the enzyme sample were too low to effect product profiles. All reactions were conducted at 30° C. Reactions containing 8-oxogeranial 2 as a substrate were incubated for 3 h, whilst reactions with 8-oxocitronellal 6 were incubated for 16 h, unless noted. At reaction termination, a camphor standard (10 μL, stock 1 mM in MeCN) and EtOAc (100 μL) were added. The reactions were vortexed, centrifuged (10,000×g, 10 min) and the organic layer was used in GC-MS analysis. The concentrations of components in reactions varied extensively and so for each reaction the Figure or Figure legend describe the exact conditions employed.
Samples were injected in split mode (2 μL, split ratio 5:1) at an inlet temperature of 220° C. on a Hewlett Packard 6890 GC-MS equipped with a 5973 mass selective detector (MSD), and an Agilent 7683B series injector and autosampler. Separation was performed on a Zebron ZB5-HT-INFERNO column (5% phenyl methyl siloxane; length: 35 m; diameter: 250 μm) with guard column. Helium was used as mobile phase at a constant flow rate of 1.2 mL/min and average velocity 37 cm/s. After 5 min at 80° C., the column temperature was increased to 110° C. at a rate of 2.5 K/min, then to 280° C. at 120 K/min, and kept at 280° C. for another 4 min. A solvent delay of 5 min was allowed before collecting MS spectra at a fragmentation energy of 70 eV. An internal standard of (+)-camphor was used for retention time calibration. Chemically characterised standards were used to identify compounds by retention time and electron impact spectra.

[4] abbreviates: co-substrate NAD+ 1 mM, 25° C., 50 mM HEPES pH 8.0.
Where [5] appears, read: co-substrate NAD+ 1 mM, substrate 50-750 μM.
The mark [6] stands for this setting: co-substrate 4a 0.1 mM, substrate 1-250 μM.
[7] abbreviates: co-substrate 4a 0.5 mM, substrate 7.8-1000 μM.

Read-outs that look alike come from different tables or passages of the source.

In the case of `CC1=COC(=O)[C@H]2[C@@H]1CC[C@@H]2C` (relative stereo) [1a, cis-trans-nepetalactone], the “Kcat or V (velocity V, single substrate concentration)” value in data set [1] (co-substrate NADH 0.1 mM) is “no reaction”.
As to `CC1=COC(O)[C@H]2[C@@H]1CC[C@@H]2C` (relative stereo) [4a, cis-trans-nepetalactol], the “Kcat or V (kcat, substrate concentration varied)” value is 0.148 ± 0.002 s⁻¹ in data set [1] (setting [4]) and 0.0804 ± 0.005 s⁻¹ in data set [2] (setting [5]). Besides, the Km in data set [1] (setting [4]) is 1.6 ± 0.1 µM; in data set [2] (setting [5]), 251 ± 37 µM. Moreover, the “increase in Km caused by the T154G substitution” value in data set [2] (NEPS1-T154G versus NEPS1-WT) was determined as 150 fold. Also, the stability in buffer result in data set [3] (10 mM MOPS pH 7.5, 16 h) is “stable”; in data set [3] (0.5 M MOPS pH 7.5, 16 h) it was “stable”.
As to `CC1=COC(O)[C@H]2[C@@H](C)CC[C@@H]12` (relative stereo) [4b, cis-cis-nepetalactol], in data set [1] (setting [4]), the “Kcat or V (kcat, substrate concentration varied)” value is 0.32 ± 0.01 s⁻¹ and the Km was found to be 4.9 ± 0.8 µM. Further, the stability in buffer result in data set [3] (10 mM MOPS pH 7.5, 16 h) is reported as “mostly stable”. Further, in data set [3] (0.5 M MOPS pH 7.5, 16 h), the stability in buffer result is on record as “not stable”.
As for `NC(=O)c1ccc[n+]([C@@H]2O[C@H](COP(=O)([O-])OP(=O)(O)OC[C@H]3O[C@@H](n4cnc5c(N)ncnc54)[C@H](O)[C@@H]3O)[C@@H](O)[C@H]2O)c1` [NAD+, oxidized nicotinamide adenine dinucleotide, reference compound], the “Kcat or V (kcat, substrate concentration varied)” value is 0.173 ± 0.003 s⁻¹ in data set [1] (setting [6]) and 0.0599 ± 0.002 s⁻¹ in data set [2] (setting [7]). Further, the figures for the Km in data set [1] (setting [6]) and in data set [2] (setting [7]) were 3.5 ± 0.3 µM and 26 ± 4 µM, respectively.
On to `NC(=O)c1ccc[n+]([C@@H]2O[C@H](COP(=O)([O-])OP(=O)(O)OC[C@H]3O[C@@H](n4cnc5c(N)ncnc54)[C@H](OP(=O)(O)O)[C@@H]3O)[C@@H](O)[C@H]2O)c1` [NADP+, reference compound], for which the “Kcat or V (velocity V, single substrate concentration)” value in data set [1] (co-substrate 4a 0.1 mM) turned out to be 0.020 ± 0.005 s⁻¹.

As usually defined, the Km is the concentration of substrate that gives half-maximal velocity.
